From ChEMBL document CHEMBL4507315 (2021)

Experiments:
[1] = system: Tyrosine-protein kinase ABL1 (Homo sapiens), P00519 [F317L]; details: Compound concentration 100.0 nM
[2] = system: Tyrosine-protein kinase ABL1 (Homo sapiens), P00519 [F317L]; details: Compound concentration 100.0 nM; remark: listed apart in the source
[3] = system: Tyrosine-protein kinase ABL1 (Homo sapiens), P00519 [Q252H]; details: Compound concentration 100.0 nM
[4] = target: Mitogen-activated protein kinase kinase kinase 5 (Homo sapiens) (UniProt Q99683); details: Compound concentration 100.0 nM
[5] = target: Aurora kinase C (Homo sapiens) (UniProt Q9UQB9); details: Compound concentration 100.0 nM
[6] = target: Tyrosine-protein kinase Blk (Homo sapiens) (UniProt P51451); details: Compound concentration 100.0 nM
[7] = target: Bone morphogenetic protein receptor type-1B (Homo sapiens) (UniProt O00238); details: Compound concentration 100.0 nM
[8] = system: Serine/threonine-protein kinase B-raf (Homo sapiens), P15056 [V600E]; details: Compound concentration 100.0 nM
[9] = target: Serine/threonine-protein kinase BRSK1 (Homo sapiens) (UniProt Q8TDC3); details: Compound concentration 100.0 nM
[10] = target: Calcium/calmodulin-dependent protein kinase type IV (Homo sapiens) (UniProt Q16566); details: Compound concentration 100.0 nM
[11] = target: Cyclin-dependent kinase 4 (Homo sapiens) (UniProt P11802); details: Compound concentration 100.0 nM
[12] = target: Cyclin-dependent kinase 5 (Homo sapiens) (UniProt Q00535); details: Compound concentration 100.0 nM
[13] = target: Macrophage colony-stimulating factor 1 receptor (Homo sapiens) (UniProt P07333); details: Compound concentration 100.0 nM
[14] = target: Casein kinase I isoform epsilon (Homo sapiens) (UniProt P49674); details: Compound concentration 100.0 nM
[15] = target: Death-associated protein kinase 3 (Homo sapiens) (UniProt O43293); details: Compound concentration 100.0 nM
[16] = target: Dual specificity tyrosine-phosphorylation-regulated kinase 2 (Homo sapiens) (UniProt Q92630); details: Compound concentration 100.0 nM
[17] = system: Epidermal growth factor receptor (Homo sapiens), P00533 [UNDEFINED MUTATION]; details: Compound concentration 100.0 nM
[18] = target: Ephrin type-A receptor 6 (Homo sapiens) (UniProt Q9UF33); details: Compound concentration 100.0 nM
[19] = target: Fibroblast growth factor receptor 4 (Homo sapiens) (UniProt P22455); details: Compound concentration 100.0 nM
[20] = system: Receptor-type tyrosine-protein kinase FLT3 (Homo sapiens), P36888 [UNDEFINED MUTATION]; details: Compound concentration 100.0 nM
[21] = target: Beta-adrenergic receptor kinase 1 (Homo sapiens) (UniProt P25098); details: Compound concentration 100.0 nM
[22] = target: G protein-coupled receptor kinase 3 (Homo sapiens) (UniProt P35626); details: Compound concentration 100.0 nM
[23] = target: Glycogen synthase kinase-3 alpha (Homo sapiens) (UniProt P49840); details: Compound concentration 100.0 nM
[24] = target: Serine/threonine-protein kinase haspin (Homo sapiens) (UniProt Q8TF76); details: Compound concentration 100.0 nM
[25] = target: Inhibitor of nuclear factor kappa-B kinase subunit alpha (Homo sapiens) (UniProt O15111); details: Compound concentration 100.0 nM
[26] = target: Tyrosine-protein kinase JAK2 (Homo sapiens) (UniProt O60674); details: Compound concentration 100.0 nM
[27] = target: Mitogen-activated protein kinase 10 (Homo sapiens) (UniProt P53779); details: Compound concentration 100.0 nM
[28] = target: MAP kinase-activated protein kinase 5 (Homo sapiens) (UniProt Q8IW41); details: Compound concentration 100.0 nM
[29] = target: Dual specificity mitogen-activated protein kinase kinase 5 (Homo sapiens) (UniProt Q13163); details: Compound concentration 100.0 nM
[30] = target: Macrophage-stimulating protein receptor (Homo sapiens) (UniProt Q04912); details: Compound concentration 100.0 nM
[31] = target: Myosin light chain kinase family member 4 (Homo sapiens) (UniProt Q86YV6); details: Compound concentration 100.0 nM
[32] = target: Mitogen-activated protein kinase kinase kinase 14 (Homo sapiens) (UniProt Q99558); details: Compound concentration 100.0 nM
[33] = target: Protein kinase C eta type (Homo sapiens) (UniProt P24723); details: Compound concentration 100.0 nM
[34] = target: Protein-tyrosine kinase 2-beta (Homo sapiens) (UniProt Q14289); details: Compound concentration 100.0 nM
[35] = system: Proto-oncogene tyrosine-protein kinase receptor Ret (Homo sapiens), P07949 [M918T]; details: Compound concentration 100.0 nM
[36] = target: Serine/threonine-protein kinase RIO2 (Homo sapiens) (UniProt Q9BVS4); details: Compound concentration 100.0 nM
[37] = target: Tyrosine-protein kinase Srms (Homo sapiens) (UniProt Q9H3Y6); details: Compound concentration 100.0 nM
[38] = target: SRSF protein kinase 2 (Homo sapiens) (UniProt P78362); details: Compound concentration 100.0 nM
[39] = target: Tyrosine-protein kinase receptor Tie-1 (Homo sapiens) (UniProt P35590); details: Compound concentration 100.0 nM
[40] = target: Serine/threonine-protein kinase ULK3 (Homo sapiens) (UniProt Q6PHR2); details: Compound concentration 100.0 nM
[41] = target: Wee1-like protein kinase 2 (Homo sapiens) (UniProt P0C1S8); details: Compound concentration 100.0 nM
[42] = target: Serine/threonine-protein kinase WNK4 (Homo sapiens) (UniProt Q96J92); details: Compound concentration 100.0 nM
[43] = target: 5-hydroxytryptamine receptor 3A (Homo sapiens) (UniProt P46098); details: Compound concentration 10.0 uM
[44] = target: 5-hydroxytryptamine receptor 7 (Homo sapiens) (UniProt P34969); details: Compound concentration 10.0 uM
[45] = target: Mu-type opioid receptor (Homo sapiens) (UniProt P35372); details: Compound concentration 10.0 uM
[46] = target: Alpha-2C adrenergic receptor (Homo sapiens) (UniProt P18825); details: Compound concentration 10.0 uM

Serine/threonine-protein kinase RIO2 (Homo sapiens), sequence (Q9BVS4 whole entry, looked up): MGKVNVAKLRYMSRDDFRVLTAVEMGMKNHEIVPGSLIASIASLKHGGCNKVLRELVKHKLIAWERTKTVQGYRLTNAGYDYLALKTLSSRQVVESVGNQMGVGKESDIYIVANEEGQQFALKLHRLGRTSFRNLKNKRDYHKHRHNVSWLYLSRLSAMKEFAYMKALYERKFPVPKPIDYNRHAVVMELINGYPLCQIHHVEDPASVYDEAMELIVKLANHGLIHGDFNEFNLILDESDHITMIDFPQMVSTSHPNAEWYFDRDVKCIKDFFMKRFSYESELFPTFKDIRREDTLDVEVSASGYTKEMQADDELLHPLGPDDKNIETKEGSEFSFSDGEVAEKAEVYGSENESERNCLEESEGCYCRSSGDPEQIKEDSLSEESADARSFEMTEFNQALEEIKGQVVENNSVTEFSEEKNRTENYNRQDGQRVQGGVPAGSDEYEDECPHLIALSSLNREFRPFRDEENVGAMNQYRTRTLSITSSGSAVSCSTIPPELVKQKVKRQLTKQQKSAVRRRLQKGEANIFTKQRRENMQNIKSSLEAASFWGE
Dual specificity tyrosine-phosphorylation-regulated kinase 2 (Homo sapiens), sequence (Q92630 whole entry): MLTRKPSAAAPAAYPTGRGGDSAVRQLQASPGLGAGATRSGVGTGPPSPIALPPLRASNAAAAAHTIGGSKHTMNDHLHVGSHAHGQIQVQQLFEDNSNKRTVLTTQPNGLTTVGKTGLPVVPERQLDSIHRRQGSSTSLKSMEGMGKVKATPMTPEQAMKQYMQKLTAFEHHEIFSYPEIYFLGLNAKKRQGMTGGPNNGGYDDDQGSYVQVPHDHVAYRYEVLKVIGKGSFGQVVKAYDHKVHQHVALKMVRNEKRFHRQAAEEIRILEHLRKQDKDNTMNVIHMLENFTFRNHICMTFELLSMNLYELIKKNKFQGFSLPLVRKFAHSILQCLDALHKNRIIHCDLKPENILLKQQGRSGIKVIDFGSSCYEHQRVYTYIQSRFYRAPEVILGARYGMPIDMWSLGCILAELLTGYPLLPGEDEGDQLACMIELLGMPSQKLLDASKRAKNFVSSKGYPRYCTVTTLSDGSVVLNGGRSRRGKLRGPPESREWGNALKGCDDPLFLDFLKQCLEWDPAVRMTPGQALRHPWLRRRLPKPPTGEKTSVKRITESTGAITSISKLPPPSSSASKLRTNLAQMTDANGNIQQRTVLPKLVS
Inhibitor of nuclear factor kappa-B kinase subunit alpha (Homo sapiens), sequence (O15111 whole entry): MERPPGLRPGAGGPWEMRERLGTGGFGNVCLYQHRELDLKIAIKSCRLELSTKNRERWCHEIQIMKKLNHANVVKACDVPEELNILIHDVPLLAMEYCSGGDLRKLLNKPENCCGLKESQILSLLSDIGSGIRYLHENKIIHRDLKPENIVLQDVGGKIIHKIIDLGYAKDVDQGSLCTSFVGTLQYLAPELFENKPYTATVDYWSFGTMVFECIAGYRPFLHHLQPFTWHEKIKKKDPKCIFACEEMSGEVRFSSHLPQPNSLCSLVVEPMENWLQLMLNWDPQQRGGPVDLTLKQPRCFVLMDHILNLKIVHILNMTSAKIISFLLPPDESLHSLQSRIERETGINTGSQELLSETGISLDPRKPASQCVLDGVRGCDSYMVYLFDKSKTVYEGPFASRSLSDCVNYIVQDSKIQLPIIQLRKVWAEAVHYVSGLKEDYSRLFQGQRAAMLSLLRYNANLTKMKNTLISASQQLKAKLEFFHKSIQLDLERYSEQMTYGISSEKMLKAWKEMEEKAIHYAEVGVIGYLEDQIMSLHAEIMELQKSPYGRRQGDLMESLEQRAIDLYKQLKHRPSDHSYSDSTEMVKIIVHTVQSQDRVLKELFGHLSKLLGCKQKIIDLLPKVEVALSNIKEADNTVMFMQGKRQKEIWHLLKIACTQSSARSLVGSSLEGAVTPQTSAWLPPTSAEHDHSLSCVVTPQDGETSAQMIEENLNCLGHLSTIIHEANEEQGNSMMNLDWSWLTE
Myosin light chain kinase family member 4 (Homo sapiens), sequence (Q86YV6 whole entry): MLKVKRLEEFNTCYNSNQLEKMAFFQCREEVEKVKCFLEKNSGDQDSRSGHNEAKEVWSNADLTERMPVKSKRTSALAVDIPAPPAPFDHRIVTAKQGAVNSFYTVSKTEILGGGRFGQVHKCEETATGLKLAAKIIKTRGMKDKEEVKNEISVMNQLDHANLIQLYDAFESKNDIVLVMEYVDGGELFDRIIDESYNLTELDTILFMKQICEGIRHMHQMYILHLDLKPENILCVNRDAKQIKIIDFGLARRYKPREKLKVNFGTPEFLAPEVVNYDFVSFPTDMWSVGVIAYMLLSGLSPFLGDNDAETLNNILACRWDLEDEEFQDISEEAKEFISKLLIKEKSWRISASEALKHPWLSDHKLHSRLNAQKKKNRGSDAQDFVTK
Tyrosine-protein kinase JAK2 (Homo sapiens), sequence (O60674 whole entry): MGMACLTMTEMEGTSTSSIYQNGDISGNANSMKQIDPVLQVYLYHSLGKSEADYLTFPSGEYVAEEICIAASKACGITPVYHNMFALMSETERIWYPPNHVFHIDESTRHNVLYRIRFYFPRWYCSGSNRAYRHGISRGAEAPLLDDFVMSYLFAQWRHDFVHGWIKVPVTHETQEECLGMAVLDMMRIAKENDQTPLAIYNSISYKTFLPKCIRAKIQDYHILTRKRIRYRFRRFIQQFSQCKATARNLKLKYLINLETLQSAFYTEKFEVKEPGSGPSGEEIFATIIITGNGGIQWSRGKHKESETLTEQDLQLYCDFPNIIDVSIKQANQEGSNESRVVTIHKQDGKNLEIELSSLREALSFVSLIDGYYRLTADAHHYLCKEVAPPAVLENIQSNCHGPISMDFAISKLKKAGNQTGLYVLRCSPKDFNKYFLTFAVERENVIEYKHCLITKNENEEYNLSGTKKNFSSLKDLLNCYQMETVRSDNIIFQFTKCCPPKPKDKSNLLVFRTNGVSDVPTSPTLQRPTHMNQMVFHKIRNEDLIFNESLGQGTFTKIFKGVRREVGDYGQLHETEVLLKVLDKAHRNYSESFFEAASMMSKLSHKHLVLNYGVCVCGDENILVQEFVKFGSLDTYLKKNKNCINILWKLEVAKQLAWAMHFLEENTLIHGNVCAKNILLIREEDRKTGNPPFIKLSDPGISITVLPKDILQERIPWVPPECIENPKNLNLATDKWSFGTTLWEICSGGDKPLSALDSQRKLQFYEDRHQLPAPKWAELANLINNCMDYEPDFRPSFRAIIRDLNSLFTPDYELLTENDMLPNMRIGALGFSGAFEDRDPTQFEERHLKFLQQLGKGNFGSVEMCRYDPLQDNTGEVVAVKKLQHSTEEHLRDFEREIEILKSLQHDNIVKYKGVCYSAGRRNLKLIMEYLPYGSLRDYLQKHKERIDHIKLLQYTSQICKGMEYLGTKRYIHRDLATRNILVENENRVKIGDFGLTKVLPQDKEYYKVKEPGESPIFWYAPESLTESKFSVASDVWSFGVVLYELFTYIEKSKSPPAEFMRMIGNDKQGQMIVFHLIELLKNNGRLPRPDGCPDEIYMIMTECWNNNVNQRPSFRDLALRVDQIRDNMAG
Proto-oncogene tyrosine-protein kinase receptor Ret (Homo sapiens), P07949 [M918T], sequence (P07949 whole entry M918T): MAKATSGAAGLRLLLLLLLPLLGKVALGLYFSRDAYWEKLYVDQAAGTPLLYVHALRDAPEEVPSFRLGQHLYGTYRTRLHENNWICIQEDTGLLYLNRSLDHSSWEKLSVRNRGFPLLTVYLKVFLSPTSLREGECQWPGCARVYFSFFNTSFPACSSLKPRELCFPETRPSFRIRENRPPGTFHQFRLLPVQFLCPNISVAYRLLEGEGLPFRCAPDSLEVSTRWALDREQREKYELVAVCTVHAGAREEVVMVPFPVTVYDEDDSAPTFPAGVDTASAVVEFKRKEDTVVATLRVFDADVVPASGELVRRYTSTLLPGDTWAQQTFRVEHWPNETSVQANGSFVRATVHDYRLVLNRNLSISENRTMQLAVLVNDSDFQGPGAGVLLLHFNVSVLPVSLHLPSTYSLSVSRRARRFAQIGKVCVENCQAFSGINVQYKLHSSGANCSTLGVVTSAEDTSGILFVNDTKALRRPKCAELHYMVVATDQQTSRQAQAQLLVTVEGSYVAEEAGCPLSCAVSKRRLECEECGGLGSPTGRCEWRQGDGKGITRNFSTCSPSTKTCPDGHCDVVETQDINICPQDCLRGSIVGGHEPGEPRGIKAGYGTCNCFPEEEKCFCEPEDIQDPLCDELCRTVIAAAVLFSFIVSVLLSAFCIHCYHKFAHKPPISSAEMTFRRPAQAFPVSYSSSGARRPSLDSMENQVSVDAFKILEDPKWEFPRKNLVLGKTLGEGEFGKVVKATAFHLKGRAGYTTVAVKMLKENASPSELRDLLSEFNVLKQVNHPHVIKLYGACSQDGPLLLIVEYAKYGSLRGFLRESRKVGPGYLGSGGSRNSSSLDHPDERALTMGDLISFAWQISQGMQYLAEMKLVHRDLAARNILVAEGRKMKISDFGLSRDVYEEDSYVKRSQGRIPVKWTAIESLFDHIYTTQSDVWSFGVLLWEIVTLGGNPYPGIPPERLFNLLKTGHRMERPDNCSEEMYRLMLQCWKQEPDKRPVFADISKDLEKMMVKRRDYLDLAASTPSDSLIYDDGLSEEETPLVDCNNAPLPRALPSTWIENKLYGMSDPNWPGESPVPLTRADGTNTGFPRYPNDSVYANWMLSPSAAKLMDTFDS
5-hydroxytryptamine receptor 7 (Homo sapiens), sequence (P34969 whole entry): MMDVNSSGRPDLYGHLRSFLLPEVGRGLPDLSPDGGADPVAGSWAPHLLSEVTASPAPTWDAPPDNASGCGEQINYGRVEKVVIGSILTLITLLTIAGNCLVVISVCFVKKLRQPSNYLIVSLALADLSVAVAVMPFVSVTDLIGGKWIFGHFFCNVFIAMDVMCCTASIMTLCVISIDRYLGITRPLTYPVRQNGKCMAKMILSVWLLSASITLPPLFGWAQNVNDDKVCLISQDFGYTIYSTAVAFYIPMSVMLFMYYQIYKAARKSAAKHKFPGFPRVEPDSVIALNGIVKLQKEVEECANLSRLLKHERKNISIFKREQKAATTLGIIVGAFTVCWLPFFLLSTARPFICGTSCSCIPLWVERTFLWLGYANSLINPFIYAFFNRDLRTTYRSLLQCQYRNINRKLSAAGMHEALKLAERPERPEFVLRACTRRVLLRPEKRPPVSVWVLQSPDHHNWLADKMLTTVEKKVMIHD

Nc1c(C(=O)NCc2ccc(C(=O)NCCCC3CCCCC3)cc2)cnn1-c1ccccc1 [SR-318]
inactive: residual activity [1] 100% | residual activity [2] 100% | residual activity [3] 98% | residual activity [4] 81% | residual activity [5] 100% | residual activity [6] 81% | residual activity [7] 100% | residual activity [8] 100% | residual activity [9] 94% | residual activity [10] 98% | residual activity [11] 100% | residual activity [12] 100% | residual activity [13] 100% | residual activity [14] 98% | residual activity [15] 100% | residual activity [16] 97% | residual activity [17] 100% | residual activity [18] 94% | residual activity [19] 97% | residual activity [20] 73% | residual activity [21] 100% | residual activity [22] 100% | residual activity [23] 100% | residual activity [24] 100% | residual activity [25] 100% | residual activity [26] 100% | residual activity [27] 100% | residual activity [28] 93% | residual activity [29] 100% | residual activity [30] 100% | residual activity [31] 100% | residual activity [32] 100% | residual activity [33] 98% | residual activity [34] 99% | residual activity [35] 100% | residual activity [36] 92% | residual activity [37] 100% | residual activity [38] 100% | residual activity [39] 100% | residual activity [40] 100% | residual activity [41] 100% | residual activity [42] 80% | inhibition [43] -0.42% | inhibition [44] 13.2% | inhibition [45] 41.2% | inhibition [46] 18.1%

O=C(NCCCC1CCCCC1)c1ccc(CNC(=O)c2cnn(-c3ccccc3)c2C(F)(F)F)cc1 [SR-321]
inactive: residual activity [1] 100% | residual activity [2] 82% | residual activity [3] 98% | residual activity [4] 91% | residual activity [5] 100% | residual activity [6] 100% | residual activity [7] 92% | residual activity [8] 100% | residual activity [9] 100% | residual activity [10] 100% | residual activity [11] 100% | residual activity [12] 88% | residual activity [13] 100% | residual activity [14] 100% | residual activity [15] 92% | residual activity [16] 100% | residual activity [17] 100% | residual activity [18] 88% | residual activity [19] 100% | residual activity [20] 100% | residual activity [21] 100% | residual activity [22] 100% | residual activity [23] 100% | residual activity [24] 100% | residual activity [25] 100% | residual activity [26] 100% | residual activity [27] 100% | residual activity [28] 100% | residual activity [29] 73% | residual activity [30] 100% | residual activity [31] 100% | residual activity [32] 90% | residual activity [33] 100% | residual activity [34] 93% | residual activity [35] 100% | residual activity [36] 100% | residual activity [37] 93% | residual activity [38] 100% | residual activity [39] 100% | residual activity [40] 100% | residual activity [41] 100% | residual activity [42] 100% | inhibition [43] 5.72% | inhibition [44] 25.8% | inhibition [45] 19.4% | inhibition [46] 3.68%
